From patent US20020165119A1, “Method of treating inflammatory conditions by inhibiting cytosolic phospholipase A2” (priority 2001, published 2002)
Entries after “also recorded” stand apart in the source; their conditions may differ. Numbered stars: 1 amine (or outer) side, 2 acyl side, 3 side chain; on linkers, the order of the positions; unused ones are H or OH. Bridge positions count the residues as written; N and C are the ends. Square brackets hold non-standard residues; d marks the D form. Peptide text beside a SMILES is read from it. X1 = CC(C)CCCCCCCCC[C@H](CC(=O)[*:1])O[*:2]

Key:
cPLA2 = biological target: T1, cPLA2 (Homo sapiens, UniProt P47712); conditions: Zhu et al., J. Immunol. 163:3423-3429, 1999; cited from earlier work
T1 sequence (P47712 1-749): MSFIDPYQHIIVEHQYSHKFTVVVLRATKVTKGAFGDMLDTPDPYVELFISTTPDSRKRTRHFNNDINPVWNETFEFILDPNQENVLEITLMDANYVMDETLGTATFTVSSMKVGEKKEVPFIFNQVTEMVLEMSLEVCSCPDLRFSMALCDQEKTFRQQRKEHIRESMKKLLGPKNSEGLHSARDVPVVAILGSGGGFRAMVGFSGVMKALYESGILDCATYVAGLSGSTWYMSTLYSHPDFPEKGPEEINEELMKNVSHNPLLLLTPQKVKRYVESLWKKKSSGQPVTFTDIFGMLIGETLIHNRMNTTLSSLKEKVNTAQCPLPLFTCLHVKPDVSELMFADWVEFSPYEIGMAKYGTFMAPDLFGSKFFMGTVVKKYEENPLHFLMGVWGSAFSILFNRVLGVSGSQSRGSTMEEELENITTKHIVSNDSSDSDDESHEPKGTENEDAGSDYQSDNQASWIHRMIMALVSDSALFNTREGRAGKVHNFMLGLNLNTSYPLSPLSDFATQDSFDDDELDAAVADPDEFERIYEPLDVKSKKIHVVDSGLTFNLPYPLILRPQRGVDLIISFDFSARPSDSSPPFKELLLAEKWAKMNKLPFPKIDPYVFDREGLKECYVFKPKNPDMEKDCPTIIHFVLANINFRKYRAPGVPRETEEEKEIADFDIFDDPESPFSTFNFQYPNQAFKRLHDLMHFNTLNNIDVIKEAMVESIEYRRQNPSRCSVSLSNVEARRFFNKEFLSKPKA

[1] = tested on: OA-sensitized guinea pigs; assay: Bronchoalveolar lavage cell counts after antigen challenge; format: in vivo, guinea pig; conditions: for eosinophil count in BAL fluid: after ovalbumin challenge; for BAL eosinophils: 24 h after OA-challenge; for airway eosinophil influx after antigen challenge: guinea pig, in vivo
Method: Analysis of Bronchoalveolar Cells
(§1) After assessment of antigen-induced airway hyperresponsiveness or 24 h after IL-5 injection, airway inflammation was assessed. Immediately before and 1, 24, 48, and 72 h after antigen challenge, bronchoalveolar lavage (BAL) was performed to determine the time-course of cellular infiltration into airways. Two aliquots of 10 ml sterile 37° C. saline were infused into the tracheal cannula. The BAL fluid was recovered manually by gentle aspiration with a disposable syringe after each infusion. The total cell number was determined using a Turk solution. Differential cell counts were performed on cytospin preparations (Cytospin 2, Shandon, England) by counting 300 cells after staining by the May-Grüwald-Giemsa method in a single-blind method.

[2] = tested on: OA-sensitized guinea pigs; assay: Antigen-induced airway hyperresponsiveness to methacholine (PC200); format: in vivo, guinea pig; conditions: for antigen (ovalbumin)-induced methacholine airway hyperresponsiveness: 24 h after OA challenge; for baseline airway responsiveness to methacholine: drug alone
Method: (§2) Guinea pigs weighing 200 to 250 g were actively sensitized by a modification of the method reported by Andersson et al., Int. Arch. Allergy Appl. […] Guinea pigs were pretreated with an i.p. injection of 30 mg/kg of cyclophosphamide. Two days later, the animals were immunized with 2.0 mg of ovalbumin and 100 mg of aluminum hydroxide [Al(OH)3]. A booster injection of 10 μg of OA together with 100 mg of Al(OH)3 was given 3 wk after the primary immunization.
Antigen-Induced Airway Hyperresponsiveness to Methacholine
Antigen-induced airway response to methacholine was measured 24 h after challenge. Guinea pigs were anaesthetized by an i.p. injection of 75 mg/kg of sodium pentobarbitone and were placed in a supine position. […] Exp. Path. […] After completion of all surgical procedures, the lungs were overinflated by two times tidal volume for two breaths by closing the outlet port of the respirator. This was done to standardize the volume history of the lungs. […] See Minami et al., Jpn.
Airway responsiveness to inhaled methacholine was expressed as the dose of methacholine required to provoke a 200% increase (PC200) in the Pao. Values for PC200 were logarithmically transformed for analysis and reported as the geometric mean [geometric SEM (GSEM)]. All measurements except for PC200 were expressed as mean±SEM. Variation between three or more groups was analyzed using analysis of variance (ANOVA) followed by Fisher's protected least significant difference. Variation between two groups was tested using Student's t test. A value of p<0.05 was accepted as an indication of statistical significance.

[3] = tested on: OA-sensitized guinea pigs; assay: Antigen-induced bronchoconstriction: specific airway resistance (sRaw) after ovalbumin challenge; format: in vivo, guinea pig; conditions: for sRaw: drug alone; for increase in sRaw caused by OA challenge (immediate bronchoconstriction): pre-treatment i.p. 60 min before antigen challenge
From the text: Male albino Hartley strain guinea pigs were obtained from Sankyou Laboratory Service (Toyama, Japan), and were quarantined in the Animal Research Center of Kanazawa University for 1 wk before study. All animal procedures in this study complied with the standards specified in the Guideline for the Care and Use of Laboratory Animals at the Takara-machi Campus of Kanazawa University.
as §2
Animals were placed in a whole-body, double-chamber plethysmograph for measurement of specific airway resistance (sRaw) by a modification of the method described by Pennock et al., Appl. […] A respiratory mechanics analyzer (model PMUA+SAR, Buxco Electronics, Troy, N.Y.) was used to measure the phase shift between nasal and thoracic airflow and to compute sRaw on a breath by breath basis. A bias flow of air (20 ml/sec) was maintained through the nasal chamber to ensure a constant supply of fresh air to the animal. The analyzer subtracted this flow from its calculations. […] The nebulizer output was 0.14 ml/min. Baseline measurement of sRaw was obtained in all groups 5 min before antigen challenge.

guinea pigs = assay: IL-5-induced airway eosinophil accumulation (BAL); format: in vivo, guinea pig; conditions: for BAL eosinophils: 24 h after IL-5 treatment; for airway eosinophil influx after treatment with IL-5: guinea pig, in vivo
Method: IL-5-Induced Airway Eosinophil Accumulation
Guinea pigs weighing 350 to 400 g were treated i.p. before IL-5 injection with TFMK (20 mg/kg), E6123 (0.1 mg/kg), or vehicle (n=7 in each group). Animals were lightly anesthetized with diethyl ether inhalation, and then 200 μl sterile PBS containing 20 ng IL-5 was intranasally injected into the airway.
as §1

bronchial airways = assay: Lung histology after ovalbumin challenge; format: in vivo, guinea pig; conditions: 2-20 mg/kg TFMK, 24 h
From the text: After washing with sterile saline, the lung was fixed by perfusion with 10% formalin. Lung sections were stained with hematoxylin and eosin.

[4] = tested on: TXB2 production from whole blood; assay: Effect of i.p. TFMK on TXB2 production ex vivo (FMLP/CB-stimulated whole blood); format: in vivo, guinea pig; conditions: FMLP 10^−6 M + 5 μg/ml cytochalasin B; after 20 mg/kg i.p. TFMK
Method: Effect of i.p. TFMK on TXB2 Production ex vivo
Sixty min after TFMK (20 mg/kg or vehicle i.p.; n=4 in each group), guinea pigs were anesthetized and heparinized blood (20 U/ml) was obtained via right carotid artery. Duplicate 1-ml aliquots of whole blood were incubated first with 5 μg/ml CB for 2 min and subsequently with 10^−6 M FMLP for 30 additional min at room temperature. Control samples from the same animals were incubated with buffer alone. Immediately after centrifugation, TXB2 was measured by enzyme immunoassay using reagents obtained from Cayman Chemical (Ann Arbor, Mich.).

Structure (SMILES) | eosinophil count in BAL fluid [1] | BAL eosinophils [1] | airway eosinophil influx after antigen challenge [1] | antigen (ovalbumin)-induced methacholine airway hyperresponsiveness [2] | baseline airway responsiveness to methacholine [2] | sRaw [3] | increase in sRaw caused by OA challenge (immediate bronchoconstriction) [3] | BAL eosinophils (guinea pigs) | airway eosinophil influx after treatment with IL-5 (guinea pigs) | other results
CC(C)CCCCCCCCC[C@@H]1CC(=O)N[C@@H](CCC(=O)O)C(=O)N[C@@H](CC(C)C)C(=O)N[C@H](CC(C)C)C(=O)N[C@@H](C(C)C)C(=O)N[C@@H](CC(=O)O)C(=O)N[C@H](CC(C)C)C(=O)N[C@@H](CC(C)C)C(=O)O1 [Surfactin] (EL[dL]VD[dL]L; linker N-C via X1) | – | – | – | – | – | – | – | – | – | activity of cPLA2 (cPLA2): inhibit or reduce the activity
CC1=C(C)C(=O)C(CCCCC#CCCCC#CCO)=C(C)C1=O [AA-861] | no effect | – | – | – | – | – | – | – | – | –
Cc1nnc2n1-c1sc3c(c1C(c1ccccc1Cl)=N[C@H]2C)CCN(C(=O)C1CC1)C3 [E6123] | – | 1.6±0.6 ×10^5/ml | dose-dependently blocked | complete blockade | not altered; also recorded: neither drug alone had any effect | neither drug alone had any effect | not attenuated | 0.4±0.1 ×10^5/ml | dose-dependently blocked | BAL total cell number (guinea pigs; after IL-5 treatment): 3.3±0.4 ×10^5/ml
CC(C)(C)c1ccc(C(=O)CCCN2CCC(OC(c3ccccc3)c3ccccc3)CC2)cc1 [ebastine] | – | – | – | had no effect | – | – | significantly attenuated | – | – | –
COc1ccc2c(c1)c(CC(=O)O)c(C)n2C(=O)c1ccc(Cl)cc1 [indomethacin] | no effect | – | – | neither indomethacin, a COX inhibitor, nor AA861, a 5-LO inhibitor, blocked | – | – | not attenuated | – | – | –
CCCCC/C=C\C/C=C\C/C=C\C/C=C\CCCC(=O)C(F)(F)F [TFMK, arachidonic trifluoromethyl ketone] | – | 2.1±0.7 ×10^5/ml | dose-dependently blocked | – | not altered; also recorded: neither drug alone had any effect | neither drug alone had any effect | not attenuated | 0.7±0.2 ×10^5/ml | dose-dependently blocked | PC200 (provocative concentration of methacholine causing a 200% increase in Pao) ([2]; antigen challenged animals pretreated with 20 mg/kg TFMK, 24 h after challenge, geometric mean (GSEM)): 218 ± 0.08 µg/mL; inflammatory cell infiltration in epithelial layer and lamina propria (histology) (bronchial airways): blocked cell infiltration progressively; increase in stimulated TXB2 production from whole blood [4]: 13.5±10.5%
